In US20250011311A1, “AMIDO HETEROAROMATIC COMPOUNDS” (AstraZeneca AB, priority 2022, published 2025):

How the values were obtained:
[1] = Metabolism Study: in vitro study to identify metabolites; type: in vitro ADME
Source text: Metabolites 1 and 2 were subsequently synthesised and characterised.

[2] = molecular target: over expressed HSD17β13 in HEK293S cells (Homo sapiens (Human), UniProt Q7Z5P4); assay: In Vitro 17bHSD13 Cell Assay; type: cell-based; conditions: HEK293S cells over expressing HSD17β13; estradiol to estrone conversion, 18 h, LC-MS/MS; read-out: 17bHSD1713 Cell assay IC50
Summary of the method: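 HEK293S cells overexpressing HSD17β13 convert estradiol to estrone; product read by LC-MS/MS (APCI, positive MRM) as AUC ratio estrone/(estrone+estradiol). Effect normalised between DMSO and maximal inhibition by a known inhibitor control; IC50 from curve fit.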

CYP2C9 = CYP2C9 (Homo sapiens (Human), UniProt P11712); assay: Assay B: Cytochrome P450 Inhibition 2C9
Protocol: A fluorescence-based method in 96-well format was used to determine the inhibition of 2C9 (Crespi, C. L. et al., Microtiter plate assays for inhibition of human, drug-metabolizing cytochromes P450. Anal Biochem 1997, 248 (1), 188-190. DOI: 10.1006/abio.1997.2145, which is incorporated herein by reference). The recombinant human enzymes used were prepared in house, except for CYP2D6 (CYPEX LTD, Dundee, UK). Different coumarin substrates, biotransformed into fluorescent metabolites, were used as probes for each individual CYP. A fluorescence plate reader (SPECTRAMAX GEMINIXS, MOLECULAR DEVICES, Sunnyvale, California, USA) was used to measure the levels of metabolites formed. A dilution series of the test substrates was prepared at eight different concentrations. For each CYP, a mixture of the enzyme, corresponding coumarin substrate, potassium phosphate buffer pH 7.4 and water (concentrations and volumes were CYP-dependent) were added to each well in a black 96-well plate. The test substrates at different concentrations were added. After 10 min pre-incubation, the co-factor NADPH was added to initiate the reaction. After 20-50 min (CYP and substrate-dependent) the reaction was terminated by addition of trisbase/MeCN (20:80). The plates were transferred to the fluorescence plate reader where the wavelengths were set individually for the different coumarin substrates and their respective fluorescent metabolite. The responses were exported to Excel where the IC50 curves were plotted (percent inhibition versus concentration) and IC50 values calculated for each test substrate and enzyme using XL-fit.

[3] = molecular target: over expressed HSD17β9 in HEK293S cells (Homo sapiens (Human), UniProt Q92781); assay: In Vitro 17bHSD9 Cell Assay; type: cell-based; conditions: HEK293S cells over expressing HSD17β9; retinol to retinal conversion, 18 h, LC-MS/MS; read-out: 17bHSD9 Cell assay IC50
Summary of the method: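 HEK293S cells overexpressing HSD17β9 were plated at 10K cells/well in DMEM + 10% FBS and cultured 18 h. Retinol-to-retinal conversion in media was quantified by LC-MS/MS (MRM) as retinal/(retinal + retinol). IC50 was fitted after normalisation to DMSO and full inhibition by a reference inhibitor.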

[4] = molecular target: human CB1 receptor expressed in transfected CHO cells (Homo sapiens (Human), UniProt P21554); assay: Assay C: CB1 Agonism Assay; type: cell-based; conditions: agonist activity, cAMP HTRF, read-out: Assay C: CB1 Hu CHO cAMP TRF Ag CR GMean EC50
Protocol: Assay C: CB1 Agonism Assay
Evaluation of the agonist activity of compounds at the human CB1 receptor expressed in transfected CHO cells, determined by measuring their effects on cAMP modulation using the HTRF detection method.
Thereafter, the adenylyl cyclase activator NKH 477 is added at a final concentration of 3 μM. Following 20 min incubation at 37° C., the cells are lysed and the fluorescence acceptor (D2-labeled cAMP) and fluorescence donor (anti-cAMP antibody labeled with europium cryptate) are added. After 60 min at room temperature, the fluorescence transfer is measured at gex=337 nm and gem=620 and 665 nm using a microplate reader (RUBYSTAR, BMG). The cAMP concentration is determined by dividing the signal measured at 665 nm by that measured at 620 nm (ratio). The results are expressed as a percent of the control response to 30 nM CP 55940. The standard reference agonist is CP 55940, which is tested in each experiment at several concentrations to generate a concentration-response curve from which its EC50 value is calculated.
Bibliographic reference Felder, C. C. et al., (1995), Comparison of the pharmacology and signal transduction of the human cannabinoid CB1 and CB2 receptors, Mol. Pharmacol., 48: 443, which is incorporated herein by reference.

Chain of CYP2C9 (P11712 whole entry): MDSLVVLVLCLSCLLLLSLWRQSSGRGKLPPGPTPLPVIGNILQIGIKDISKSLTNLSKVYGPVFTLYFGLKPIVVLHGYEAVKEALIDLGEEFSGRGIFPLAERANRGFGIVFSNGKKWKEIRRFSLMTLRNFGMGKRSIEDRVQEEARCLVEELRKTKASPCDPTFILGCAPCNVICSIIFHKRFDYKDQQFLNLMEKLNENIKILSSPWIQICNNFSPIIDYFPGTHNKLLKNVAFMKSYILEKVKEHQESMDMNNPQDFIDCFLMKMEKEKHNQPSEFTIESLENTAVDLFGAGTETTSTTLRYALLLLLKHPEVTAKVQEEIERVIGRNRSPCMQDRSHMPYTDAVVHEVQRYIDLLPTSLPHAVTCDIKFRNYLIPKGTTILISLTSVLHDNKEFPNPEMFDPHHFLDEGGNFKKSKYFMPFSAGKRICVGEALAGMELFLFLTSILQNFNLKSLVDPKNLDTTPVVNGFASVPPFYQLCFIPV
Chain of over expressed HSD17β9 in HEK293S cells (Q92781 whole entry): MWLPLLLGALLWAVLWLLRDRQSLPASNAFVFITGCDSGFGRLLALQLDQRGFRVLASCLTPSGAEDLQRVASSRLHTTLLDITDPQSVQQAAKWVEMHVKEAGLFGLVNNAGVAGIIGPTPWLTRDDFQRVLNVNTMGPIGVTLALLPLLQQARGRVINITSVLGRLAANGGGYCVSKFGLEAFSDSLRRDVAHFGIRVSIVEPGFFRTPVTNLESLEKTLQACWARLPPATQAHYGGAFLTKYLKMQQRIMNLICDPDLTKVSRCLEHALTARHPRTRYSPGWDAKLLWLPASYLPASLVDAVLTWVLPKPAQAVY
Chain of human CB1 receptor expressed in transfected CHO cells (P21554 whole entry): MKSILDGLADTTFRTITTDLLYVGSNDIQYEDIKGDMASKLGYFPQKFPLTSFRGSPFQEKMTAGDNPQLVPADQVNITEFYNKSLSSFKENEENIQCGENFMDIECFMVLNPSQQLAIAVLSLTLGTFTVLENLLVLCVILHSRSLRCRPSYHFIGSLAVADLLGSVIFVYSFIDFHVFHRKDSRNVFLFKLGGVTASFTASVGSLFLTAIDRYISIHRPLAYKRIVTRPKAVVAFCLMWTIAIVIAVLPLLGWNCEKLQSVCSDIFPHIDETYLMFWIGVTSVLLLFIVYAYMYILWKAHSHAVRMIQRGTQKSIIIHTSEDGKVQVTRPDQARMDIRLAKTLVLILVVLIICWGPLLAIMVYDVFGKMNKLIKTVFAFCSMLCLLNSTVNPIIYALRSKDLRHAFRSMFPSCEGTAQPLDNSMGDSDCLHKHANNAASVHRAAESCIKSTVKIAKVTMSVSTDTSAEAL
Chain of over expressed HSD17β13 in HEK293S cells (Q7Z5P4 20-300): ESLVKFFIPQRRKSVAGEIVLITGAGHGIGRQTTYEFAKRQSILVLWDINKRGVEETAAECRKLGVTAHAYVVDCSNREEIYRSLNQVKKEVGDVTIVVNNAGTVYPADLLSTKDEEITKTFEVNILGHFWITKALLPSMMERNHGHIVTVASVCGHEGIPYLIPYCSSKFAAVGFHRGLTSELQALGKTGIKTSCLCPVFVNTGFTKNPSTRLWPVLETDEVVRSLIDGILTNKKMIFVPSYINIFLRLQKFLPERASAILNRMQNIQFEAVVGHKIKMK

C[C@@H]1CN(C(=O)c2noc(-c3cc(F)c(F)c(O)c3F)n2)C[C@H](C)O1 [Example 87, ((2R,6S)-2,6-Dimethylmorpholino)(5-(2,4,5-trifluoro-3-hydroxyphenyl)-1,2,4-oxadiazol-3-yl)methanone]
metabolites identified [1]: yielded Metabolite 1 and Metabolite 2 | IC50 [2]: 0.06 µM | IC50 (CYP2C9): 15.4 µM | IC50 [3]: 36.3 µM | EC50 [4]: 46 µM

CC1CN(C(=O)c2noc(-c3cc(F)c(F)c(O)c3F)n2)CC(C)(C)O1 (centres unmarked) [Example 117, (5-(2,4,5-Trifluoro-3-hydroxyphenyl)-1,2,4-oxadiazol-3-yl)(2,2,6-trimethylmorpholino)methanone]
IC50 [2]: 0.09 µM | IC50 (CYP2C9): 4.9 µM | IC50 [3]: > 50 µM | EC50 [4]: 0.5 µM

N#Cc1cccc2c1CCN(C(=O)c1noc(-c3cc(F)c(F)c(O)c3F)n1)C2 [Example 66, 2-(5-(2,4,5-Trifluoro-3-hydroxyphenyl)-1,2,4-oxadiazole-3-carbonyl)-1,2,3,4-tetrahydroisoquinoline-5-carbonitrile]
IC50 [2]: 0.25 µM | IC50 (CYP2C9): 3.1 µM | IC50 [3]: > 50 µM | EC50 [4]: 3.2 µM

N#Cc1ccc2c(c1)CN(C(=O)c1noc(-c3cc(F)c(F)c(O)c3F)n1)CC2 [Example 86, 2-(5-(2,4,5-Trifluoro-3-hydroxyphenyl)-1,2,4-oxadiazole-3-carbonyl)-1,2,3,4-tetrahydroisoquinoline-7-carbonitrile]
IC50 [2]: 0.54 µM | IC50 (CYP2C9): 4 µM | IC50 [3]: 21.1 µM | EC50 [4]: 5.7 µM
